According to ChEMBL document CHEMBL1154952, “N1-Alkyl pyrimidinediones as non-nucleoside inhibitors of HIV-1 reverse transcriptase” (Bioorg Med Chem Lett, 2010):
In brackets after ≈: the same amount, converted by molar mass.

Legend:
[1] = test system: Human immunodeficiency virus 1; test: Antiviral activity against NNRTI-resistant HIV1 harboring reverse transcriptase K103N mutant infected in human MT2 cells; assay type: functional, organism-based; details: Human immunodeficiency virus 1, MT2
[2] = test system: Human immunodeficiency virus 1; test: Antiviral activity against HIV1 harboring reverse transcriptase Y181C mutant infected in human MT2 cells; assay type: functional, organism-based; details: Human immunodeficiency virus 1, MT2
[3] = test system: Human immunodeficiency virus 1; test: Antiviral activity against wild type HIV1 infected in human MT2 cells; assay type: functional, organism-based; details: Human immunodeficiency virus 1, MT2
Albumin = Albumin (Homo sapiens, UniProt P02768); test: Binding affinity to human serum albumin; assay type: ADME; details: read-out: PB (converted)
[4] = Volume of distribution at steady state in Beagle dog at 0.5 mg/kg, iv or. 5 mg/kg, po; assay type: ADME, organism-based, Canis lupus familiaris; details: in vivo, read-out: Vdss
[5] = Half life in Beagle dog at 0.5 mg/kg, iv or. 5 mg/kg, po; assay type: ADME, organism-based, Canis lupus familiaris; details: in vivo
[6] = Aqueous solubility in 50 mM phosphate buffer; assay type: physicochemical
[7] = Oral bioavailability in Beagle dog at 5 mg/kg, po dosed as suspension; assay type: ADME, organism-based, Canis lupus familiaris; details: in vivo
[8] = AUC ((0 to infinity)) in Beagle dog at 5 mg/kg, po dosed as suspension; assay type: ADME, organism-based, Canis lupus familiaris; design: time infinity, dose 5 mg/kg, route oral; details: plasma
[9] = Oral bioavailability in Beagle dog at 5 mg/kg, po dosed as Tablet formulation; assay type: ADME, organism-based, Canis lupus familiaris; details: in vivo
[10] = AUC ((0 to infinity)) in Beagle dog at 5 mg/kg, po dosed as Tablet formulation; assay type: ADME, organism-based, Canis lupus familiaris; design: time infinity, dose 5 mg/kg, route oral; details: plasma
Canis familiaris = test: Toxicity in Beagle dog assessed as emesis at greater than 5 mg/kg, po dosed as suspension; assay type: organism-based, Canis lupus familiaris; design: dose 5 mg/kg, route oral; details: in vivo
[11] = test system: Human immunodeficiency virus 1; test: Ratio of EC50 for HIV1 harboring reverse transcriptase K103N mutant in absence of 50% human serum to EC50 for HIV1 harboring reverse transcriptase K103N mutant in presence of 50% human serum; assay type: functional
[12] = Oral bioavailability in Beagle dog at 0.5 mg/kg; assay type: ADME, organism-based, Canis lupus familiaris; details: in vivo
[13] = test system: Human immunodeficiency virus 1; test: Ratio of EC50 for HIV1 harboring reverse transcriptase Y181C mutant in absence of 50% human serum to EC50 for HIV1 harboring reverse transcriptase Y181C mutant in presence of 50% human serum; assay type: functional
[14] = test system: Human immunodeficiency virus 1; test: Ratio of EC50 for wild type HIV1 in absence of 50% human serum to EC50 for wild type HIV1 in presence of 50% human serum; assay type: functional
[15] = Oral bioavailability in Beagle dog at 2 mg/kg; assay type: ADME, organism-based, Canis lupus familiaris; details: in vivo
[16] = Oral bioavailability in Beagle dog at 4 mg/kg; assay type: ADME, organism-based, Canis lupus familiaris; details: in vivo

Albumin, sequence (P02768 whole entry): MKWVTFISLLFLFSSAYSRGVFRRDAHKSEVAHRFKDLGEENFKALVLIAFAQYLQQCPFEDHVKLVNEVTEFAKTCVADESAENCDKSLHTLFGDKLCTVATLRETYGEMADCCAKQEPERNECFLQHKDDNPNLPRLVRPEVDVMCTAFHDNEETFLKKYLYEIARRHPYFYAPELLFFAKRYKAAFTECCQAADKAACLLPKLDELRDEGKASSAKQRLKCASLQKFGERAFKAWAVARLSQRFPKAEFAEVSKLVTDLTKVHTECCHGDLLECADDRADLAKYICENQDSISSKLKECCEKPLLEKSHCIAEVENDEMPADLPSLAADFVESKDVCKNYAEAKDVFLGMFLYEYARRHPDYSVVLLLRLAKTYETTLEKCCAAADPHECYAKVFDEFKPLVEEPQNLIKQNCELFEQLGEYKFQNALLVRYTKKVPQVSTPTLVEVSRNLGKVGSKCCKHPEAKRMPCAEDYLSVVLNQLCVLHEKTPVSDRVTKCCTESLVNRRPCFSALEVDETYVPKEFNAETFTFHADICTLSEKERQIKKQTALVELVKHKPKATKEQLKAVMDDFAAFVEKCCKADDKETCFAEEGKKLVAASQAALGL

| Compound | EC50 [1] [nM] | EC50 [2] [nM] | EC50 [3] [nM] | fraction unbound (Albumin) | Vd [4] [L/kg] | half-life [5] [h] | other results |
| --- | --- | --- | --- | --- | --- | --- | --- |
| CCn1c(C(F)c2cc(C)cc(C#N)c2)c(C(C)C)c(=O)[nH]c1=O (stereo not drawn) | > 24 | 8.1 | 21 | 0.02 | – | – | – |
| CCc1c(C(=O)c2cc(C)cc(C#N)c2)n(CC)c(=O)[nH]c1=O | > 43 | > 43 | 11.7 | 0.149 | 1.53 | 1.42 | – |
| CCn1c(Oc2cc(C)cc(C#N)c2)c(C(C)C)c(=O)[nH]c1=O | > 14 | 2.6 | 35 | 0.04 | – | – | – |
| CCn1c(C(=O)c2cc(C)cc(C#N)c2)c(C(C)C)c(=O)n(COC(C)=O)c1=O | – | – | – | – | – | – | solubility [6]: 2.2 µg/mL (≈ 5.54 µM); bioavailability [7]: 48.9%; AUC(0-inf) [8]: 14.7 µM·h; bioavailability [9]: 35.3%; AUC(0-inf) [10]: 8.78 µM·h |
| CCn1c(C(=O)c2cc(C)cc(C#N)c2)c(C(C)C)c(=O)n(COC(=O)OC(C)C)c1=O | – | – | – | – | – | – | solubility [6]: < 1 µg/mL; bioavailability [7]: 108%; AUC(0-inf) [8]: 54 µM·h; bioavailability [9]: 24%; AUC(0-inf) [10]: 4.54 µM·h |
| CCn1c(C(=O)c2cc(C)cc(C#N)c2)c(C(C)C)c(=O)n(COP(=O)(O)O)c1=O | – | – | – | – | – | – | solubility [6]: 12000 µg/mL (≈ 27600 µM); Activity (Canis familiaris): Toxic; bioavailability [7]: 75.2%; AUC(0-inf) [8]: 18.8 µM·h |
| Cc1cc(C#N)cc(C(=O)c2[nH]c(=O)[nH]c(=O)c2C(C)C)c1 | > 1 | > 1 | > 500 | – | 0.45 | 6.4 | – |
| Cc1cc(C#N)cc(C(=O)c2c(C(C)C)c(=O)[nH]c(=O)n2C)c1 | > 2.7 | > 2.7 | 187 | 0.141 | – | – | – |
| CCn1c(C(=O)c2cc(C)cc(C#N)c2)c(C(C)C)c(=O)[nH]c1=O | 6.4 | 9.6 | 6.1 | 0.166 | 2.25 | 6.5 | solubility [6]: 11 µg/mL (≈ 33.8 µM); Ratio EC50 [11]: 2.7; bioavailability [12]: 69%; bioavailability [7]: 35.8%; AUC(0-inf) [8]: 13.1 µM·h; bioavailability [9]: 45.1%; Ratio EC50 [13]: 2.7; Ratio EC50 [14]: 2.7; AUC(0-inf) [10]: 13.5 µM·h |
| CCCn1c(C(=O)c2cc(C)cc(C#N)c2)c(C(C)C)c(=O)[nH]c1=O | > 36 | > 58 | 3.6 | 0.009 | 1.4 | 1.67 | – |
| CCCCn1c(C(=O)c2cc(C)cc(C#N)c2)c(C(C)C)c(=O)[nH]c1=O | 10 | 12 | 3 | 0.001 | 2.23 | 6.1 | bioavailability [15]: 28% |
| CCn1c(C(=O)c2cc(C)cc(C#N)c2)c(C(C)(C)C)c(=O)[nH]c1=O | 2.7 | > 50 | 10 | 0.007 | – | – | – |
| CCn1c(C(F)(F)c2cc(C)cc(C#N)c2)c(C(C)C)c(=O)[nH]c1=O | 9 | 4.3 | 4.2 | 0.013 | – | – | – |
| O=C1Nc2ccc(Cl)cc2[C@@](C#CC2CC2)(C(F)(F)F)O1 [EFAVIRENZ] | – | – | – | 0.001 | – | – | – |
| Cc1cc(C#N)cc(C)c1Oc1nc(Nc2ccc(C#N)cc2)nc(N)c1Br [ETRAVIRINE] | – | – | – | 0.002 | 1.6 | 8.87 | bioavailability [16]: 13% |
